Structures can show the parent of a compound that is named as a salt. Where two headings read alike, the source gives them in different places.
Assays:
[1] = Rat Intravenous 20 mpk
recombinant human MMP-13 = recombinant human MMP-13 (Homo sapiens, UniProt P45452); assay: biochemical; details: read-out: MMP-13 IC50
recombinant human MMP-1 = target: T1, recombinant human MMP-1 (Homo sapiens, UniProt P03956); assay: biochemical; details: read-out: MMP-1 IC50
T1 construct: made in house; host or cells: transfected HT-1080 cells (provided by Dr. Harold Welgus, Washington University)
T1 sequence (P03956 100-469): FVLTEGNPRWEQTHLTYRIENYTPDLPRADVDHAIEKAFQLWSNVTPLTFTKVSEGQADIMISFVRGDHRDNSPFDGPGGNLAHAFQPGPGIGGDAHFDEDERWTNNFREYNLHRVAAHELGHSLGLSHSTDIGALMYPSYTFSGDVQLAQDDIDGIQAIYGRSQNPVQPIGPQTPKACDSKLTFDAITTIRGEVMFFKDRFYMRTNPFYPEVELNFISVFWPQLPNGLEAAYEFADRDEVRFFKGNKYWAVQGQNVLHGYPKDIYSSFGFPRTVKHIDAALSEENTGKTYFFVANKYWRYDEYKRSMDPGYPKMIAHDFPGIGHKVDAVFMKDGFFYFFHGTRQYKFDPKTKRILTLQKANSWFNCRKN

recombinant human MMP-2 = target: T2, recombinant human MMP-2 (Homo sapiens, UniProt P08253); assay: biochemical; details: read-out: MMP-2 IC50
T2 sequence (P08253 110-660): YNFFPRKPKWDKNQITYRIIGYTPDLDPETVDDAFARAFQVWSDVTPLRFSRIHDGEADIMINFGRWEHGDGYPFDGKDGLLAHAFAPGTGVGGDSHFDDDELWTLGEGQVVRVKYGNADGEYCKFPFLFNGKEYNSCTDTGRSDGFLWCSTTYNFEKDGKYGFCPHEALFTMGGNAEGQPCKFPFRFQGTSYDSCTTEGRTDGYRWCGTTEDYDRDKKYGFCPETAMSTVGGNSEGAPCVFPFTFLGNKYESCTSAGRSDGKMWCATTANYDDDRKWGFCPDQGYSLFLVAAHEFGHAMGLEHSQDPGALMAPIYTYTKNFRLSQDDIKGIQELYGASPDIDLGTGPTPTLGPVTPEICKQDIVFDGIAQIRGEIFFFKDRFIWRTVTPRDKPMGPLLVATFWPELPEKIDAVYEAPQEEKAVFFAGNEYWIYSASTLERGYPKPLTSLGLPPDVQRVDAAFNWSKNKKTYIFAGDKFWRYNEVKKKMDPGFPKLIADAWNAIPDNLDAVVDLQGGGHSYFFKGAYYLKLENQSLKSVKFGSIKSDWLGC

recombinant human MMP-9 = recombinant human MMP-9 (Homo sapiens, UniProt P14780); assay: biochemical; details: read-out: MMP-9 IC50
recombinant human MMP-9, sequence (P14780 107-707 limits assumed): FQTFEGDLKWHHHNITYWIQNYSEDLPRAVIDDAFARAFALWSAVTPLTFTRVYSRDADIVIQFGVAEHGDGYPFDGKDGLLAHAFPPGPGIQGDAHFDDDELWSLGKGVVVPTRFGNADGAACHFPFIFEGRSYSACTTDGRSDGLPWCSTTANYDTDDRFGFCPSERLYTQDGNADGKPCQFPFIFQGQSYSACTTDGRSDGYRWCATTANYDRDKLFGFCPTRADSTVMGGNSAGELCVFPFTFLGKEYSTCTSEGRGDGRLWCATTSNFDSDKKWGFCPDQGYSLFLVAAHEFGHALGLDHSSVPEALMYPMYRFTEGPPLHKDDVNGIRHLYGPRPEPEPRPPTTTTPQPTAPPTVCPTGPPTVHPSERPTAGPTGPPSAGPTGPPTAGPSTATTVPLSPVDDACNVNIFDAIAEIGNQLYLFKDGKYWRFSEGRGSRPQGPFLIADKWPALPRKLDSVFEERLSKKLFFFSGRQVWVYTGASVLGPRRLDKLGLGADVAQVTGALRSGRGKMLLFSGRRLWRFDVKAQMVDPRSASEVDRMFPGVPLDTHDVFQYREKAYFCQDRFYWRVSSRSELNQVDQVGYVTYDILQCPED

Compound | t½ Hour [1] | IC50 (recombinant human MMP-13; Inhibition Table B) | IC50 (recombinant human MMP-1; Inhibition Table B) | IC50 (recombinant human MMP-2; Inhibition Table B) | IC50 (recombinant human MMP-9; Inhibition Table B) | IC50 (recombinant human MMP-13; Inhibition Table A) | IC50 (recombinant human MMP-1; Inhibition Table A) | IC50 (recombinant human MMP-2; Inhibition Table A) | IC50 (recombinant human MMP-9; Inhibition Table A)
Cl.O=C(NO)C1(S(=O)(=O)c2ccc(Oc3ccc4c(c3)OCCO4)cc2)CCN(C2CC2)CC1 [Example 408, 1-cyclopropyl-4-[[4-[(2,3-dihydro-1,4-benzodioxin-6-yl)oxy]phenyl]-sulfonyl]-N-hydroxy-4-piperidine-carboxamide, Monohydrochloride] | 3.30 h |  |  |  |  |  |  |  | 
O=C(NO)C1(S(=O)(=O)c2ccc(Oc3ccc(C(F)(F)F)cc3)cc2)CCN(CCN2CCOCC2)CC1 [Example 388, N-hydroxy-1-[2-(4-morpholinyl)-ethyl]-4-[[4-[4-(trifluoromethyl)phenoxy]-phenyl]sulfonyl]-4-piperidinecarboxamide, Dihydrochloride] | 0.94 h |  |  |  |  |  |  |  | 
COCCN1CCC(C(=O)NO)(S(=O)(=O)c2ccc(Oc3ccc(C(F)(F)F)cc3)cc2)CC1.Cl [Example 418, N-hydroxy-1-(2-methoxyethyl)-4-[[4-[4-(trifluoromethyl)-phenoxy]phenyl]sulfonyl}-4-piperidinecarboxamide, Monohydrochloride] | 2.42 h |  |  |  |  |  |  |  | 
O=C(NO)C1(S(=O)(=O)c2ccc(Oc3ccc(C(F)(F)F)cc3)cc2)CCN(Cc2cccnc2)CC1 [Example 390, N-hydroxy-1-(3-pyridinylmethyl)-4-[[4-[4-trifluoromethyl)phenoxy]phenyl]-sulfonyl]-4-piperidinecarboxamide, Dihydrochloride] | 1.50 h |  |  |  |  |  |  |  | 
O=C(O)CN1CCC(C(=O)NO)(S(=O)(=O)c2ccc(Oc3ccc(Cl)cc3)cc2)CC1 [Example 88, 4-[[4-(4-chlorophenoxy)-phenyl]sulfonyl]-4-[(hydroxyamino)-carbonyl]-1-piperidineacetic Acid, Monohydrochloride] |  | 0.2 nM | 1100 nM | 0.2 nM | 0.5 nM |  |  |  | 
C#CCN1CCC(C(=O)NO)(S(=O)(=O)c2ccc(Oc3ccc(Cl)cc3)cc2)CC1 [Example 85, 4-[[4-(4-chlorophenoxy)-phenyl]sulfonyl]-N-hydroxy-1-(2-propynyl)-4-piperidinecarboxamide, Monohydrochloride] |  | < 0.1 nM | 500 nM | < 0.1 nM | 0.4 nM |  |  |  | 
O=C(NO)C1(S(=O)(=O)c2ccc(Sc3ccc(O)cc3)cc2)CCSCC1 [Example 114] |  | 0.4 nM | 3000 nM | 0.65 nM | 31.6 nM |  |  |  | 
O=C(NO)C1(S(=O)(=O)c2ccc(-c3ccc(Cl)cc3)cc2)CCNCC1 [Example 91, 4-[(4′-chloro[1,1′-biphenyl]-4-yl)sulfonyl]-N-hydroxy-4-piperidinecarboxamide, Monohydrochloride] |  | 2.1 nM | 1800 nM | 1.5 nM | 40 nM |  |  |  | 
O=C(NO)C1(S(=O)(=O)c2ccc(NCc3ccccc3)cc2)CCOCC1 [Example 68, tetrahydro-N-hydroxy-4-[[4-[(4-phenylmethyl)amino]phenyl]-sulfonyl]-2H-pyran-4-carboxamide, Monohydrochloride] |  | 6 nM | > 10000 nM | 5.3 nM | 130 nM |  |  |  | 
Cc1cc(Oc2ccc(S(=O)(=O)C3(C(=O)NO)CCNCC3)cc2)ccc1F [Example 83, 4-[[4-(4-fluoro-3-methylphenoxy)phenyl]sulfonyl]-N-hydroxy-4-piperidine Carboxamide, Monohydrochloride] |  | 1.5 nM | 8000 nM | 1.2 nM | 5 nM |  |  |  | 
C#CCN1CCC(C(=O)NO)(S(=O)(=O)c2ccc(Sc3ccc(F)cc3)cc2)CC1 [Example 24] |  |  |  |  |  | 0.4 nM | > 10000 nM | 1 nM | 3.7 nM
O=C(O)CN1CCC(C(=O)NO)(S(=O)(=O)c2ccc(Sc3ccccc3)cc2)CC1 [Example 87, 4-[(hydroxyamino)-carbonyl]-4-[[4-(phenylthio)phenyl]-sulfonyl]-1-piperidineacetic Acid, Monohydrochloride] |  | 0.35 nM | 7200 nM | 0.8 nM | 13.9 nM |  |  |  | 
Cc1ccc(Oc2ccc(S(=O)(=O)C3(C(=O)NO)CCOCC3)cc2)cc1C [Example 96, 4-[[4-(3,4-dimethyl-phenoxy)phenyl]ssulfonyl]tetrahydro-N-hydroxy-2H-pyran-4-carboxamide] |  | 0.3 nM | 5000 nM | 0.2 nM | 1.3 nM |  |  |  | 
CCCCOC1CCN(c2ccc(S(=O)(=O)C3(C(=O)NO)CCOCC3)cc2)CC1 [Example 16] |  |  |  |  |  | 2.4 nM | > 10000 nM | 100 nM | 2500 nM
CS(=O)(=O)N1CCC(C(=O)NO)(S(=O)(=O)c2ccc(Oc3ccc4c(c3)OCO4)cc2)CC1 [Example 42, 4-[[4-(1,3-benzodioxol-5-yloxy)phenyl]sulfonyl]-N-hydroxy-1-(methylsulfonyl)-4-piperidinecarboxamide] |  | 0.4 nM | 2200 nM | 0.2 nM | 1.3 nM |  |  |  | 
C#CCN1CCC(C(=O)NO)(S(=O)(=O)c2ccc(Oc3ccc(OC)c(OC)c3)cc2)CC1 [Example 38, 4-[[4-(3,4-dimethoxyphenoxy)phenyl]sulfonyl]-N-hydroxy-1-(2-propynyl)-4-piperidinecarboxamide, Monohydrochloride] |  | 22 nM | > 10000 nM | 20 nM | 135 nM |  |  |  | 
O=C(CS(=O)(=O)c1ccc(Oc2ccccc2)cc1)NO [Example 1] |  |  |  |  |  | 5.1 nM | 6600 nM | 2.6 nM | 31.6 nM
Cc1ccc(Oc2ccc(S(=O)(=O)C3(C(=O)NO)CN(C)CN(C)C3)cc2)cc1C [Example 78, 5-[4-(3,4-dimethylphenoxy)phenyl]sulfonyl-N^5-hydroxy-1,3-dimethylhexahydro-5-pyrimidinecarboxamide, Dihydrochloride] |  | 10 nM | > 10000 nM | 6 nM | 50 nM |  |  |  | 
Cc1cc(Oc2ccc(S(=O)(=O)C3(C(=O)NO)CCN(CC(=O)O)CC3)cc2)ccc1Cl [Example 80, 4-[[4-(4-chloro-3-methylphenoxy)phenyl]sulfonyl]-4-(hydroxyamino)carbonyl]-1-piperidineacetic Acid, Monohydrochloride] |  | 0.2 nM | 3000 nM | 0.1 nM | 1.8 nM |  |  |  | 
O=C(NO)C1(S(=O)(=O)c2ccc(N3CCC(Oc4ccc5c(c4)OCO5)CC3)cc2)CCOCC1 [Example 63, 4-[[4-[4-(1,3-Benzodioxol-5-yloxy)-1-piperidinyl]phenyl]sulfonyl]-tetrahydro-N-hydroxy-2H-pyran-4-carboxamide, Monohydrochloride] |  | 1.5 nM | > 10000 nM | 18.1 nM | 530 nM |  |  |  | 
NCCc1ccc(Oc2ccc(S(=O)(=O)C3(C(=O)NO)CCSCC3)cc2)cc1 [Example 116, tetrahydro-N-hydroxy-4-[[4-[4-tyramine)phenoxy]phenyl] Sulfonyl 2H-thiopyran-4-carboxamide] |  | 5.5 nM | 2350 nM | 2 nM | 15.3 nM |  |  |  | 
CC(C)(C(=O)NO)S(=O)(=O)c1ccc(Oc2ccccc2)cc1 [Example 2] |  |  |  |  |  | 0.25 nM | 220 nM | 0.1 nM | 1.4 nM
COc1ccc(Sc2ccc(S(=O)(=O)C3(C(=O)NO)CCOCC3)cc2)cc1 [Example 65, Tetrahydro-N-hydroxy-4-[[4-(4-methoxyphenylthio)phenyl]-sulfonyl]-2H-pyran-4-carboxamide] |  | 0.7 nM | 8000 nM | 0.6 nM | 4.4 nM |  |  |  | 
